The values below come from paper PMC5515969, “Effects of 31 FDA approved small-molecule kinase inhibitors on isolated rat liver mitochondria” (Archives of Toxicology, 2016).

Like-named read-outs stand apart in the source and are kept apart here.

The subject of series [1] is RCC IV. Description: RCC IV activity in submitochondrial particles. Format: biochemical, rat. Set-up: key to RCC IV at 50XCmax / RCC IV at 100XCmax: activity relative to DMSO-treated controls (control set as 1 = 100%). As to conditions: for RCC IV at 50XCmax: DMSO treated samples set as 1, in %; for RCC activity IV: 15 min, DMSO-treated = 100. The procedure, abridged:
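Inhibitors preincubated 15 min with submitochondrial particles (1 mg/ml) before activity readout. RCC I (rotenone-sensitive fraction) and I/V: A340, and RCC II: A600, each every 1 min for 6 min; RCC III/IV: A550 every 10 s for 2 min. Activities relative to DMSO control set as 1.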

In series [2] the test system is isolated rat liver mitochondria. Description: Mitochondrial swelling (absorbance at 535 nm). As to Swelling 5XCmax: key: 0 indicates that the drug had no effects (negative). In kind it is biochemical. As to conditions: for Swelling 1XCmax / Swelling 2.5XCmax / Swelling 5XCmax / Swelling 10XCmax / Swelling 20XCmax / Swelling 30XCmax / Swelling 50XCmax / Swelling 100XCmax: difference in signal between KI and DMSO treated samples at the end of experiments; for effect on mitochondrial swelling: up to 100-fold Cmax or highest testable concentration, 25 µM calcium chloride.

Series [3] can be described thus: Solubility of DMSO stock for 100X/50X Cmax testing. The conditions noted are these: precipitation of DMSO stock. In kind it is physicochemical. An excerpt: Supplement 204_2016_1918_MOESM3_ESM.xlsx, sheet "Sheet1" | column: 100 Cmax; 50 Cmax; note
For series [4] the following is noted: cited from earlier work.
The conditions of series [5]: ref product labeling, cited from earlier work; for Labeling for cardiotoxicity: BBW: black box warning, W&P: Warnings and Precautions.
Series [6] concerns RCC I–V. Description: Activities of RCC I–V, overall statements. In kind it is biochemical, rat. As to conditions: submitochondrial particles, up to 100-fold Cmax or highest testable concentration. The procedure, abridged: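 Absorbance kinetics: A340 (RCC I, V) and A600 (RCC II) read each minute over 6 min, A550 (RCC III, IV) every 10 s over 2 min; RCC I taken as […]. Particles (1 mg/ml) pretreated 15 min with compound; DMSO-treated activity = 1.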

Series [7] relates to isolated rat liver mitochondria. Nature of the series: Mitochondrial toxicity, any endpoint, intact mitochondria and submitochondrial particles. In kind it is biochemical. The conditions noted are these: any endpoint. The gist of the method:
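Rat liver mitochondria isolated by differential centrifugation in sucrose/Tris-MOPS/EGTA buffer pH 7.4, adjusted to 1 mg/ml protein before treatment. Kinase inhibitors added at 1:1000 dilution of stock; final DMSO 0.1%, with 0.1% DMSO controls.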

Where [8] appears, read: 1 DILI positive, 0 negative according to labeling, ref product labeling.

For the compound `CC(=O)c1c(C)c2cnc(Nc3ccc(N4CCNCC4)cn3)nc2n(C2CCCC2)c1=O.Cl` [palbociclib hydrochloride], the “RCC IV at 50XCmax” value in series [1] was found to be 0. In series [2], the “Swelling 1XCmax” value worked out at 0, the “Swelling 2.5XCmax” value is 0, the “Swelling 5XCmax” value is 0 and the “Swelling 10XCmax” value is listed as 0. Moreover, in series [2], the “Swelling 20XCmax” value was found to be 0, the “Swelling 30XCmax” value was determined as 0, the “Swelling 50XCmax” value came out at 0 and the “Swelling 100XCmax” value turned out to be 0. Also, the “note (DMSO stock)” value in series [3] came out at 100X will precipitate. Also, the “DILI potential (based on labeling)” value in series [4] (setting [8]) is listed as 0. For the same compound, in series [5], the “Potential for cardiotoxicity (based on labeling)” value (from here on “Potential for cardiotoxicity”) is 0.

Regarding `Cc1cc(Nc2ncc(Cl)c(Nc3ccccc3S(=O)(=O)C(C)C)n2)c(OC(C)C)cc1C1CCNCC1` [Ceritinib], in series [1] (50-fold Cmax), the “RCC activity IV” value is 82.33 ± 3.68 % of control. In series [1], the “RCC IV at 50XCmax” value came out at 82.33±3.68. Besides, the “RCC activity IV” value in series [1] (100-fold Cmax) is 71.46 ± 7.39 % of control. Besides, the “RCC IV at 100XCmax” value in series [1] (100XCmax) is listed as 71.46±7.39. In series [2], the “lowest concentration causing mitochondrial swelling” value is listed as 100 fold Cmax, the “Swelling 1XCmax” value amounted to 0, the “Swelling 2.5XCmax” value was 0 and the “Swelling 5XCmax” value was found to be 0. In series [2], the “Swelling 10XCmax” value came to 0, the “Swelling 20XCmax” value is on record as 0, the “Swelling 30XCmax” value worked out at 0 and the “Swelling 50XCmax” value was 0. Moreover, in series [2], the “Swelling 100XCmax” value worked out at 0.54±0.06 and the “effect on mitochondrial swelling” value is “significant mitochondrial swelling”. Also, the RCCs inhibited entry in series [6] was “all five RCCs”. For the same compound, in series [4] (setting [8]), the “DILI potential (based on labeling)” value is 1. The “Labeling for DILI” value in series [4] (BBW: black box warning, W&P: Warnings and Precautions, ref product labeling) is “W&P: ALT↑”. Moreover, the “labeling for DILI” value in series [4] (W&P warnings and precautions, BBW black box warnings, ref FDA product labeling) is “W&P: ALT↑/monitoring”. Also, the “DILI potential (based on labeling)” value in series [4] (ref FDA product labeling) was 1. For the same compound, in series [5], the Labeling for cardiotoxicity result is “W&P:QT Interval Prolongation; Bradycardia” and the “Potential for cardiotoxicity” value is listed as 1.

As for `CC(C)(C)c1nc(-c2cccc(NS(=O)(=O)c3c(F)cccc3F)c2F)c(-c2ccnc(N)n2)s1` [Dabrafenib], the “RCC IV at 50XCmax” value in series [1] is 0. For the same compound, in series [2], the “lowest concentration causing mitochondrial swelling” value was “tenfold”, the “Swelling 1XCmax” value worked out at 0, the “Swelling 2.5XCmax” value is 0 and the “Swelling 5XCmax” value was 0. Moreover, in series [2], the “Swelling 10XCmax” value is 0.20±0.02, the “Swelling 20XCmax” value came to 0.48±0.05, the “Swelling 30XCmax” value was found to be 0.46±0.05 and the “Swelling 50XCmax” value came out at 0.44±0.04. In addition, in series [2], the “Swelling 100XCmax” value came to 0.39±0.04 and the “effect on mitochondrial swelling” value is “significant mitochondrial swelling”. Moreover, the RCCs inhibited result in series [6] is “no effects on RCC activities”. In addition, the “lowest concentration causing significant mitochondrial toxicity” value in series [7] amounted to 5 fold Cmax. For the same compound, the “DILI potential (based on labeling)” value in series [4] (setting [8]) was 0. Besides, in series [4] (ref FDA product labeling), the “DILI potential (based on labeling)” value is recorded as 0. Besides, in series [5], the Labeling for cardiotoxicity entry is “W&P: Cardiomyopathy” and the “Potential for cardiotoxicity” value is 1.

`CC(=O)Nc1cccc(-n2c(=O)n(C3CC3)c(=O)c3c(Nc4ccc(I)cc4F)n(C)c(=O)c(C)c32)c1` [Trametinib]: in series [1], the “RCC IV at 50XCmax” value is 0. Besides, in series [2], the “Swelling 1XCmax” value is 0, the “Swelling 2.5XCmax” value was found to be 0, the “Swelling 5XCmax” value worked out at 0 and the “Swelling 10XCmax” value turned out to be 0. Further, in series [2], the “Swelling 20XCmax” value was 0, the “Swelling 30XCmax” value is 0, the “Swelling 50XCmax” value amounted to 0 and the “Swelling 100XCmax” value is reported as 0. In series [4] (setting [8]), the “DILI potential (based on labeling)” value was 0. For the same compound, the “DILI potential (based on labeling)” value in series [4] (ref FDA product labeling) is 0. For the same compound, in series [5], the Labeling for cardiotoxicity result was “W&P: Cardiomyopathy” and the “Potential for cardiotoxicity” value is 1.
